Measured values as given in US12226401B2, “Molecular genetic approach to treatment and diagnosis of alcohol and drug dependence” (priority 2010, dated 2025).
Like-named read-outs stand apart in the source and are kept apart here.

What was measured:
[1] = dose of 50 mg/day; cited from earlier work
[2] = test system: methamphetamine dependent subjects; assay type: in vivo, human
Experimental: Methods—The study was conducted at 8 sites, 140 subjects consented, screened for study eligibility and met DSM-IV criteria for methamphetamine dependence. Subjects were randomized to topiramate or placebo at 50 mg, escalating to 200 mg topiramate daily over weeks 1-5, and 200 mg daily over weeks 6-12. The primary outcome measure was abstinence from methamphetamine during study weeks 6 through 12. Methamphetamine use was determined using qualitative urine testing at a central laboratory. The primary outcome was analyzed using a Generalized Estimating Equation (GEE) model during weeks 6 through 12. Secondary outcomes included use reduction compared to baseline, relapse rate for subjects with negative urine at randomization, and craving. Blood samples were collected for genetic markers to examine the effects of topiramate on gene expression and to correlate genetic subtypes with response to treatment. RNA samples were collected from whole blood for 50 topiramate- and 49 placebo-treated individuals at baseline and weeks 8 and 12. Genome-wide expression profiles between positive and negative responders for Weeks 8 and 12 from placebo- and topiramate-treated groups were compared.

[3] = cited from earlier work

| Compound | Individuals in alcohol trials unable to tolerate naltrexone [1] | Treatment effect on primary outcome variable (abstinence from methamphetamine, weeks 6-12) ([2]; all subjects) | Treatment effect, exploratory analysis ([2]; subjects (n=26) with negative urine prior to randomization, p=0.02) | Treatment effect, exploratory analysis ([2]; subjects (n=35) whose baseline use was <18 days out of previous 30, p=0.03) | Cognitive impairment reported by individuals who take topiramate ([3]; general population) | Occurrence rate of cognitive impairment ([3]; substance abuse field) |
| --- | --- | --- | --- | --- | --- | --- |
| Cl.O=C1CC[C@@]2(O)[C@H]3Cc4ccc(O)c5c4[C@@]2(CCN3CC2CC2)[C@H]1O5 [naltrexone, 17-(Cyclopropylmethyl)-4,5a-epoxy-3,14-dihydroxymorphinan-6-one hydrochloride] | about 15% |  |  |  |  |  |
| CC1(C)O[C@@H]2[C@@H](CO[C@@]3(COS(N)(=O)=O)OC(C)(C)O[C@@H]23)O1 [topiramate, 2,3:4,5-Bis-O-(1-methylethylidene)-beta-D-fructopyranose sulfamate] |  | no significant treatment effect | significant treatment effect | significant treatment effect | 2.4% | about 18.7% |
